Measured values taken from patent US8883698B2, “Compositions comprising a near terminal-branched compound and methods of making the same” (The Procter & Gamble Co, priority 2010, dated 2014).

Test: Dynamic Interfacial Tension analysis (Kruss DVT30 Drop Volume Tensiometer), ascending canola oil drop in aqueous surfactant phase
Type: physicochemical
Conditions: 6 gpg water hardness; 15° C.
Procedure: The Dynamic Interfacial Tension analysis was performed on a Kruss® DVT30 Drop Volume Tensiometer. The instrument is configured to measure the interfacial tension of an ascending oil drop in aqueous detergent (surfactant) phase. The oil was canola oil. The aqueous detergent and oil phases are temperature controlled via a Polyscience® circulating water temperature controller attached to tensiometer. A dynamic interfacial tension curve is generated by dispensing the oil drops into the aqueous detergent phase from an ascending capillary with diameter of 0.2540 mm over a range of flow rates and measuring the interfacial tension at each flow rate. Data is generated at oil dispensing flow rates of 500 uL/min-1 uL/min with 2 flow rates per decade on a logarithmic scale (7 flow rates measured). Interfacial tension is measured on three oil drops per flow rate, then averaged. Interfacial tension is reported in units of mN/m. Surface age of the oil drops at each flow rate is also recorded and plots can be generated either of interfacial tension (y-axis) versus oil flow rate (x-axis) or interfacial tension (y-axis) versus oil drop surface age (x-axis).

## 13-Methyltetradecylsulfate
  precipitation observed during interfacial tension measurement: NM (precipitated)
